Active and inactive are the calls of the source. The calls are words filed in the database; no cut-off is given here.
Key:
[1] = target: T1, Heat shock protein HSP90 (Homo sapiens, UniProt P07900+P08238); assay: Inhibition of HSP90 in human HCT116 cells assessed as upregulation of HSP70 expression at 0.2 to 5 uM after 24 hrs by Western blot analysis; format: cell-based
[2] = target: T1, Heat shock protein HSP90; assay: Inhibition of HSP90 in human A549 cells assessed as downregulation of AKT protein expression after 24 hrs by Western blot analysis; format: cell-based
[3] = target: T2, DNA topoisomerase 1 (Homo sapiens) (UniProt P11387); assay: Inhibition of topoisomerase 1 in human A549 cells assessed as increase in phosphorylated KAP1 expression at 0.2 to 5 uM after 24 hrs by Western blot analysis; format: cell-based
T2 sequence (whole entry): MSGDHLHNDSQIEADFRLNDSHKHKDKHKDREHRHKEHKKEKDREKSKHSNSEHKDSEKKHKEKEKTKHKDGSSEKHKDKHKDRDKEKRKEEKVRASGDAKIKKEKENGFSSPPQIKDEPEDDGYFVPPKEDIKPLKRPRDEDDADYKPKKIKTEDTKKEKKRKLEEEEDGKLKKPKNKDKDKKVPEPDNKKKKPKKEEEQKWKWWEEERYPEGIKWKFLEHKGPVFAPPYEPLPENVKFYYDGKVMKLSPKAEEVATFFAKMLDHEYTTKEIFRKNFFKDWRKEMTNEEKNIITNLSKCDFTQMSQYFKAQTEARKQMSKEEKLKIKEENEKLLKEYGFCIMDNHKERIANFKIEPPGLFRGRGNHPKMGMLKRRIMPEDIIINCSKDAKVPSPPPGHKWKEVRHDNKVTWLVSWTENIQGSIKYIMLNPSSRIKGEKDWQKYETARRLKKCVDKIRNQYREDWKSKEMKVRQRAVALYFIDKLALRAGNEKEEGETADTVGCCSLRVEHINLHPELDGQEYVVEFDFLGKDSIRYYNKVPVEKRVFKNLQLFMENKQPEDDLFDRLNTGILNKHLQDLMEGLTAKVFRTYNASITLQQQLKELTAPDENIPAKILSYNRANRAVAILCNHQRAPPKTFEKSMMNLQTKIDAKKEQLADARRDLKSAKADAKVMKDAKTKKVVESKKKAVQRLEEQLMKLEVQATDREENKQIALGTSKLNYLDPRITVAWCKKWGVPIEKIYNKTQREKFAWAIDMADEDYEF

[4] = target: T2, DNA topoisomerase 1 (Homo sapiens); assay: Inhibition of topoisomerase 1 in human HCT116 cells assessed as increase in phosphorylated KAP1 expression at 0.2 to 5 uM after 24 hrs by Western blot analysis; format: cell-based
[5] = target: T2, DNA topoisomerase 1 (Homo sapiens); assay: Inhibition of topoisomerase 1 in human A549 cells assessed as increase in phosphorylated KAP1 expression after 24 hrs by Western blot analysis; format: cell-based
[6] = target: T2, DNA topoisomerase 1 (Homo sapiens); assay: Inhibition of topoisomerase 1 in human HCT116 cells assessed as increase in phosphorylated KAP1 expression after 24 hrs by Western blot analysis; format: cell-based
[7] = Prodrug release in mouse plasma xenografted with human HCT116 cells assessed as increase in 7-ethyl-10-hydroxycamptothecin level at 50 mg/kg, iv administered as single dose and measured after 30 mins to 72 hrs by LC-MS/MS analysis; format: ADME, organism-based; details: in vivo
[8] = test system: CAPAN-1; assay: Antitumor activity against human Capan1 cells xenografted in mouse assessed as reduction in tumor volume at 50 mg/kg, iv for every 2 days and measured twice per week by microcaliper method relative to control; format: functional
[9] = test system: CAPAN-1; assay: Antitumor activity against human Capan1 cells xenografted in mouse assessed as reduction in tumor weight at 50 mg/kg, iv for every 2 days and measured twice per week by caliper method; format: functional, organism-based
[10] = test system: Mus musculus; assay: Down regulation of topoisomerase 1 expression in mouse xenografted with human Capan1 cells at 50 mg/kg, iv for every 2 days measured at 2 hrs post last dose by Western blot analysis; format: functional, organism-based
[11] = test system: Mus musculus; assay: In vivo inhibition of HSP90 in mouse xenografted with human Capan1 cells assessed as increase in HSP70 protein expression at 50 mg/kg, iv for every 2 days measured at 2 hrs post last dose by Western blot analysis; format: functional, organism-based
[12] = test system: Mus musculus; assay: In vivo inhibition of HSP90 in mouse xenografted with human Capan1 cells assessed as decrease in AKT protein expression at 50 mg/kg, iv for every 2 days measured at 2 hrs post last dose by Western blot analysis; format: functional, organism-based
[13] = Prodrug release in mouse plasma xenografted with human Capan1 cells assessed as increase in 7-ethyl-10-hydroxycamptothecin level at 50 mg/kg, iv after 30 mins to 72 hrs by LC-MS/MS analysis; format: ADME, organism-based; details: in vivo
[14] = Prodrug release in tumor of mouse xenografted with human Capan1 cells assessed as increase in 7-ethyl-10-hydroxycamptothecin level at 50 mg/kg, iv after 72 hrs by LC-MS/MS analysis; format: ADME, organism-based, Neoplasm; details: in vivo
[15] = Toxicity in lung of mouse xenografted with human Capan1 cells assessed as pathological changes at 50 mg/kg, iv for every 2 days measured at 2 hrs post-last dose by H and E staining based analysis; format: organism-based; details: in vivo
[16] = Toxicity in heart of mouse xenografted with human Capan1 cells assessed as pathological changes at 50 mg/kg, iv for every 2 days measured at 2 hrs post last dose by H and E staining based analysis; format: organism-based; details: in vivo
[17] = Toxicity in kidney of mouse xenografted with human Capan1 cells assessed as pathological changes at 50 mg/kg, iv for every 2 days measured at 2 hrs post last dose by H and E staining based analysis; format: organism-based; details: in vivo
[18] = Toxicity in liver of mouse xenografted with human Capan1 cells assessed as pathological changes at 50 mg/kg, iv for every 2 days measured at 2 hrs post last dose by H and E staining based analysis; format: organism-based; details: in vivo
[19] = test system: CAPAN-1; assay: Antitumor activity against human Capan1 cells xenografted in mouse assessed as tumor cells with nuclear lysis at 36 mg/kg, iv for every 2 days measured at 2 hrs post last dose by H and E staining based analysis; format: functional, organism-based
[20] = Drug uptake in human HL7702 cells in PBS solution at 5 uM after 6 hrs by confocal laser scanning microscopic analysis; format: ADME, cell-based; details: l02, 6 h
[21] = Prodrug release in human A549 cells assessed as increase in 7-ethyl-10-hydroxycamptothecin level at 5 uM after 1 to 12 hrs by LC-MS/MS analysis; format: ADME, cell-based; details: a549, 5 µM
[22] = Prodrug release in human A549 cells assessed as increase in 7-ethyl-10-hydroxycamptothecin level at 5 uM after 12 hrs by LC-MS/MS analysis; format: ADME, cell-based; details: a549, 12 h
[23] = Stability of compound in PBS buffer assessed as drug degradation at 50 uM at pH 7.4 measured after 12 hrs by HPLC analysis; format: physicochemical; details: read-out: Drug degradation
[24] = Drug uptake in tumor of mouse xenografted with human HCT116 cells at 50 mg/kg, iv administered as single dose measured up to 72 hrs by LC-MS/MS analysis; format: ADME, organism-based, Neoplasm; details: in vivo
[25] = target: T1, Heat shock protein HSP90; assay: Inhibition of HSP90 in human HCT116 cells assessed as upregulation of HSP70 expression at 0.008 to 1 uM after 24 hrs by Western blot analysis; format: cell-based
[26] = target: T1, Heat shock protein HSP90; assay: Inhibition of HSP90 in human HCT116 cells assessed as downregulation of Akt expression at 0.008 to 1 uM after 24 hrs by Western blot analysis; format: cell-based

CCc1c2c(nc3ccc(OC(=O)N4CCC(NC(=O)c5noc(-c6cc(C(C)C)c(O)cc6O)c5-c5ccc(CN6CCOCC6)cc5)CC4)cc13)-c1cc3c(c(=O)n1C2)COC(=O)[C@]3(O)CC
inhibition [1]: Active | inhibition [2]: Dose-dependent effect | inhibition [3]: inactive | inhibition [4]: inactive

CCc1c2c(nc3ccc(O)cc13)-c1cc3c(c(=O)n1C2)COC(=O)[C@@]3(CC)OC(=O)CNC(=O)c1noc(-c2cc(C(C)C)c(O)cc2O)c1-c1ccc(CN2CCOCC2)cc1
inhibition [5]: Dose-dependent effect | inhibition [6]: Dose-dependent effect | Drug metabolism [7]: Metabolite_Detected | T/C [8]: 1.86% | Activity [9]: Active | inhibition [10]: Active | inhibition [11]: Active | inhibition [12]: Active | Drug metabolism [13]: Metabolite_Detected | Drug metabolism [14]: Metabolite_Detected | Activity [15]: Non-Toxic | Activity [16]: Non-Toxic | Activity [17]: Non-Toxic | Activity [18]: Non-Toxic | Activity [19]: Active | Drug uptake [20]: Not Active | Drug metabolism [21]: Metabolite_Detected | Drug metabolism [22]: Metabolite_Detected | degraded at 12 h, 50 µM [23]: 75% | Drug uptake [24]: Active | inhibition [25]: inactive | inhibition [26]: inactive

Reference: ChEMBL document CHEMBL4354883, “Design, Synthesis, and Biological Evaluation of HSP90 Inhibitor-SN38 Conjugates for Targeted Drug Accumulation” (J Med Chem, 2020)
